# Where two headings read alike, the source gives them in different places.
# Experiments:
# [1] = tested on: kidney cells (M1/M2 macrophages); conditions: 4 days
# [2] = tested on: TNF-α expressing splenic cells; conditions: spleens of rats, given orally in drinking solution
# Method: To identify and evaluate immune cells in splenic tissues, a flow cytometry-based assay was employed. Buffering capacity and pH were determined by titration of the solutions with HCl.
# To identify and evaluate immune cells in splenic tissues, a flow cytometry-based assay was used.
# [3] = tested on: vascular endothelial function; conditions: in vivo, po
# [4] = tested on: blood leukocytes (M1, M2 macrophages, TNFα+ neutrophils); conditions: single 2 g dose
# Method: Blood was taken at all time points for all control subjects. No data was excluded from the analysis. Flow cytometric analysis of heparinized whole blood was performed as described previously. Briefly, cells were incubated with antibodies for surface markers (15 minutes on ice in dark) before incubation with antibodies against intracellular cytokines and factors (after permeabilization for 15 minutes using fix/Perm cocktail, eBioscience, San Diego USA) including, CD11b, CD68, TNFα (for M1 macrophages), CD11b, CD68, CD206 and IL-10 (for M2 macrophages) (purchased from BD BioSciences) and CD16 and TNFα (for neutrophils, from eBioscience, USA). Cells were then washed and run through a four-color flow cytometer (FACS Calibur, BD Biosciences), and data were collected using CellQuest software. Samples were double-stained with control IgG and cell markers to assess any spillover signal of fluorochromes. Proper compensation was set to ensure the median fluorescence intensities of negative and positive cells were identical and then was used to gate the population. Gating excluded dead cells and debris using forward and side scatter plots.
# [5] = tested on: kidney cells (M1/M2 macrophages)
# [6] = Method: Serum Electrolytes: Blood samples were collected via an intravenous catheter (Nexiva™ Becton Dickinson, Franklin Lakes, N.J.) at baseline and at 60 minute intervals post-treatment to examine changes in serum electrolyte balance (Na, K, and Cl^−).
# [7] = tested on: spleen cells (M1/M2 macrophages)
# [8] = for Glucose / HCO3− / Hct / pCO2 / pH / pO2: arterial blood, 0.1M NaHCO3 in drinking water
# Excerpt: Arterial blood gas measurements: Dahl SS rats were anesthetized (2-5% isoflurane) and the left femoral artery was catheterized. Surgically implanted catheters were then tunneled under the skin and exposed between the shoulder blades. Catheters were protected by a light wire spring attached to a swivel (Instech Laboratories Inc, Plymouth Meeting, Pa.), which allows free 360-degree movement of the animal. Rats were individually housed and allowed to recover for 1 week before beginning experimental measurements. Catheters were filled with heparinized saline (30 U/mL) and connected to an infusion pump (Phd2000, Harvard Apparatus, Holliston, Mass.). Infusions of heparinized saline were maintained at 100 μL/hr over the course of the protocol. 0.2 mL arterial blood samples were taken prior to placing rats on treated water, on day 3 of low salt feeding and on day 7 of high salt feeding by disconnecting the catheter from the infusion pump proximal to emergence of the catheter from the rat and drawing arterial blood into a heparinized 1 mL syringe. Arterial blood gas measurements were performed on a Rapidpoint 4055 Blood gas analyzer (Seimens AG, Munich Germany) within 20 minutes of taking the sample. Arterial blood gas measurements on day 14 of HS feeding were taken at the time of sacrifice by left ventricular puncture in anesthetized (2-5% isoflurane) rats.
# Rat protocols: Dahl SS rats: All rats were maintained on low salt chow with ad libitum water (tap water). […] Following four days of low salt (LS) feeding, rats were placed on an 8% HS diet (AIN76A 8%; Dyets) for two weeks. 24 hour urine collections were obtained on day 3 of low salt and day 7 and day 14 of high salt feeding if applicable. Following 14 days of HS feeding, rats were anesthetized with isoflurane (2-5%) and tissue harvested for analysis.
# Blood gas/electrolytes: In a parallel study, rats were implanted with a femoral arterial catheter to allow arterial blood sampling.
# [9] = Kidney, 14 Days HS, 0.1M NaHCO3 in drinking water
# [10] = Kidney, 3 days LS, 0.1M NaHCO3 in drinking water
# [11] = Spleen, 14 Days HS, 0.1M NaHCO3 in drinking water
compound,measurement,setting,value
"O=C([O-])O.[Na+] [NaHCO3, sodium bicarbonate]",dose dependence of the effect on polarization,[1]; 0.01M to 0.1M NaHCO3 in drinking water,dose dependent
same,lowest NaHCO3 concentration in drinking water with changes in polarization,[1]; low salt laboratory chow,0.01 M
same,macrophage polarization in the kidney,[1]; out-bred Sprague Dawley rats,promote M2 polarization
same,number of TNF-α (inflammatory) expressing cells,[2],significantly reduced
same,FMD,[3],improves
same,FMD/Shear,[3],improves
same,M1 macrophages in blood,"[4]; 1-3 hours, compared to NaCl, p=0.0004",reduced to a significantly greater degree
same,TNFα positive neutrophils in blood,"[4]; 1-3 hours, compared to NaCl, p=0.0146",reduced to a significantly greater degree
same,percentage of blood leukocytes identified as M2 macrophages,"[4]; change from baseline compared to NaCl, p=0.00165",increased
same,IL-10 expressing macrophages (M2-polarized macrophages) in the kidney,[5]; 14 days HS,increase
same,TNFα expressing macrophages (M1-polarized macrophages) in the kidney,"[5]; 14 days HS, p<0.01",decrease
same,CD3 (% total kidney),[5]; [9],1.8 ± 0.3%
same,CD4 (% of CD3),[5]; [9],55 ± 2%
same,CD11b/c (% total kidney),[5]; [9],0.4 ± 0.04%
same,CD44 (% of CD3),[5]; [9],36 ± 5%
same,CD69 (% of CD3),[5]; [9],2.8 ± 0.7%
same,FOXP3 (% of CD3/CD4),[5]; [9],3.3 ± 0.5%
same,IL-10 (% of total kidney),[5]; [9],4.2 ± 0.3%
same,IL-17 (% of total kidney),[5]; [9],0.7 ± 0.1%
same,M1 (% of total kidney),[5]; [9],0.12 ± 0.02%
same,M2 (% of total kidney),[5]; [9],0.2 ± 0.03%
same,TNFα (% of total kidney),[5]; [9],2.0 ± 0.3%
same,CD3,[5]; [10],1.1 ± 0.3%
same,CD4,[5]; [10],54 ± 2%
same,CD11b/c,[5]; [10],0.24 ± 0.02%
same,CD44,[5]; [10],52 ± 3%
same,CD69,[5]; [10],0.9 ± 0.3%
same,FOXP3,[5]; [10],2.6 ± 0.5%
same,IL-10,[5]; [10],4.8 ± 0.5%
same,IL-17,[5]; [10],0.4 ± 0.2%
same,M1,[5]; [10],0.16 ± 0.04%
same,M2,[5]; [10],0.36 ± 0.02%
same,TNFα,[5]; [10],1.4 ± 0.2%
same,effect of NaHCO3 to promote M1 to M2 polarization in the kidney,"[5]; after removal of the spleen or manipulation of the spleen to midline, HS diet for 2 weeks",completely abolished
same,macrophage polarization in kidney tissue,"[5]; low salt fed Dahl SS rats, p=0.007",polarization from predominately M1 to M2
same,macrophage polarization with both marker sets,"[5]; spleen and kidney, 14 days HS, alternative markers CD68/CD163/CD206",M1 to M2 polarization
same,serum potassium,[6]; after single 2 g dose,decreased
same,Na,"[6]; serum, Post-treatment, single 2 g dose in 250 ml water",140.8 ± 0.5 mmol/L
same,CD3,[7]; [11],15.3 ± 0.8%
same,CD4,[7]; [11],53 ± 1%
same,CD11b/c,[7]; [11],7.3 ± 0.6%
same,CD44,[7]; [11],35 ± 2%
same,CD69,[7]; [11],7.2 ± 0.9%
same,FOXP3,[7]; [11],6 ± 0.5%
same,IL-10,[7]; [11],7.5 ± 0.7%
same,IL-17,[7]; [11],2.8 ± 0.6%
same,M1,[7]; [11],5.8 ± 0.5%
same,M2,[7]; [11],8.3 ± 0.5%
same,TNFα,[7]; [11],3 ± 0.5%
same,macrophage polarization in splenic tissue,"[7]; high salt fed, p=0.005",polarization from predominately M1 to M2
same,"markers of plasma acid base status (pH, pCO2, HCO3−)","[8]; across the course of the study, versus vehicle",no significant difference
same,Glucose,[8]; Day 3 LS,195 ± 25 mg/dL
same,HCO3−,[8]; Day 3 LS,25.2 ± 0.7 mM
same,Hct,[8]; Day 3 LS,40 ± 0%
same,pCO2,[8]; Day 3 LS,38.3 ± 1.1
same,pH,[8]; Day 3 LS,7.43 ± 0.01
same,pO2,[8]; Day 3 LS,93.5 ± 2.4
same,Glucose,[8]; Day 7 HS,160 ± 16 mg/dL
same,HCO3−,[8]; Day 7 HS,26.9 ± 0.6 mM
same,Hct,[8]; Day 7 HS,39 ± 2%
same,pCO2,[8]; Day 7 HS,39.4 ± 3.2
same,pH,[8]; Day 7 HS,7.46 ± 0.02
same,pO2,[8]; Day 7 HS,113 ± 16
same,Glucose,[8]; Day 14 HS,235.4 ± 35 mg/dL
same,HCO3−,[8]; Day 14 HS,26.1 ± 1.0 mM
same,Hct,[8]; Day 14 HS,41 ± 2%
same,pCO2,[8]; Day 14 HS,37.4 ± 4.9
same,pH,[8]; Day 14 HS,7.46 ± 0.03
same,pO2,[8]; Day 14 HS,88.7 ± 8.5
